Results from US5747660A, “Nucleic acid encoding prostaglandin F2α receptor regulatory protein” (priority 1995, dated 1998).

B1: Progesterone Receptor: over-expressed control protein, cotransfected construct (protein, UniProt P06401 1-933, looked up)
Progesterone receptor: MTELKAKGPRAPHVAGGPPSPEVGSPLLCRPAAGPFPGSQTSDTLPEVSAIPISLDGLLFPRPCQGQDPSDEKTQDQQSLSDVEGAYSRAEATRGAGGSSSSPPEKDSGLLDSVLDTLLAPSGPGQSQPSPPACEVTSSWCLFGPELPEDPPAAPATQRVLSPLMSRSGCKVGDSSGTAAAHKVLPRGLSPARQLLLPASESPHWSGAPVKPSPQAAAVEVEEEDGSESEESAGPLLKGKPRALGGAAAGGGAAAVPPGAAAGGVALVPKEDSRFSAPRVALVEQDAPMAPGRSPLATTVMDFIHVPILPLNHALLAARTRQLLEDESYDGGAGAASAFAPPRSSPCASSTPVAVGDFPDCAYPPDAEPKDDAYPLYSDFQPPALKIKEEEEGAEASARSPRSYLVAGANPAAFPDFPLGPPPPLPPRATPSRPGEAAVTAAPASASVSSASSSGSTLECILYKAEGAPPQQGPFAPPPCKAPGASGCLLPRDGLPSTSASAAAAGAAPALYPALGLNGLPQLGYQAAVLKEGLPQVYPPYLNYLRPDSEASQSPQYSFESLPQKICLICGDEASGCHYGVLTCGSCKVFFKRAMEGQHNYLCAGRNDCIVDKIRRKNCPACRLRKCCQAGMVLGGRKFKKFNKVRVVRALDAVALPQPVGVPNESQALSQRFTFSPGQDIQLIPPLINLLMSIEPDVIYAGHDNTKPDTSSSLLTSLNQLGERQLLSVVKWSKSLPGFRNLHIDDQITLIQYSWMSLMVFGLGWRSYKHVSGQMLYFAPDLILNEQRMKESSFYSLCLTMWQIPQEFVKLQVSQEEFLCMKVLLLLNTIPLEGLRSQTQFEEMRSSYIRELIKAIGLRQKGVVSSSQRFYQLTKLLDNLHDLVKQLHLYCLNTFIQSRALSVEFPEMMSEVIAAQLPKILAGMVKPLLFHKK
B2: Prolactin Receptor: over-expressed control protein, cotransfected construct (protein, UniProt P16471 25-622, looked up)
Prolactin receptor: QLPPGKPEIFKCRSPNKETFTCWWRPGTDGGLPTNYSLTYHREGETLMHECPDYITGGPNSCHFGKQYTSMWRTYIMMVNATNQMGSSFSDELYVDVTYIVQPDPPLELAVEVKQPEDRKPYLWIKWSPPTLIDLKTGWFTLLYEIRLKPEKAAEWEIHFAGQQTEFKILSLHPGQKYLVQVRCKPDHGYWSAWSPATFIQIPSDFTMNDTTVWISVAVLSAVICLIIVWAVALKGYSMVTCIFPPVPGPKIKGFDAHLLEKGKSEELLSALGCQDFPPTSDYEDLLVEYLEVDDSEDQHLMSVHSKEHPSQGMKPTYLDPDTDSGRGSCDSPSLLSEKCEEPQANPSTFYDPEVIEKPENPETTHTWDPQCISMEGKIPYFHAGGSKCSTWPLPQPSQHNPRSSYHNITDVCELAVGPAGAPATLLNEAGKDALKSSQTIKSREEGKATQQREVESFHSETDQDTPWLLPQEKTPFGSAKPLDYVEIHKVNKDGALSLLPKQRENSGKPKKPGTPENNKEYAKVSGVMDNNILVLVPDPHAKNVACFEESAKEAPPSLEQNQAEKALANFTATSSKCRLQLGGLDYLDPACFTHSFH
modifications: over-expressed construct

Columns and labels:
[1] = test system: prostaglandin F2α receptor (FP); test: [3H]PGF2α specific binding to COS cells cotransfected with FP cDNA and a test cDNA construct; format: cell-based, rat, mouse; details: COS cells cotransfected with FP + the named DNA; FP alone = 100
[2] = test system: prostaglandin F2α receptor (FP); test: Cotransfection of a third construct along with FP and FPRP, [3H]PGF2α binding; format: cell-based; details: FP + FPRP + the named third construct; FP + pSG5 = 100
Description: Therefore, a strategy based on cotransfection of a third construct (along with FP and FPRP) was pursued. These third party constructs included ones coding for the protease inhibitors alpha-l trypsin inhibitor and crmA, an inhibitor of cell death, bcl2, and few nonspecific control molecules including the vitamin D receptor, a secreted immunoglobulin molecule, and the empty parent vector pSG5 only. All groups and treatments were compared with control treatment of FP+pSG5 vs. FP+FPRP.

[3] = test system: prostaglandin F2α receptor (FP); test: Effect of intracellular messenger altering agents on [3H]PGF2α binding and on FPRP inhibition of it; format: cell-based; details: for % Control [^3 H]PGF2α Binding, FP + FPRP: FP + FPRP transfected cells treated with the agent; for % Control [^3 H]PGF2α Binding, FP + pSG5: FP + pSG5 transfected cells treated with the agent; for % Inhibition (FPRP inhibition of [^3 H]PGF2α binding): in presence of the agent at the concentration/time given; for effect of agent on FPRP inhibition of [^3 H]PGF2α binding (words): FP + FPRP transfected cells pretreated with the agent; for effect of agent on basal [^3 H]PGF2α binding: FP transfected cells pretreated with the agent
Procedure: In a third experiment, transfected cells were treated for 30 min with exposure to the following: phorbol 12-myristate 13-acetate 10^-8 M, prostaglandin E1, 10^-7 M, A23187 10^-6 M, okadaic acid 10^-6 M, or 8-Br-cAMP 10^-5 M (Table 4).
The effect of brefeldin A (3 μg/ml, 2 hr), chloroquine (100 μM, 6 hr) and tunicamysin (2.5 μg/ml, 20 hr) was determined.

[4] = target: prostaglandin F2α receptor (FP), cDNA construct whose species the place does not tell
[5] = target: rat prostaglandin F2α receptor regulatory protein (FPRP) (rat)

Row | Molecule | % Control [^3 H]PGF2α Binding, FP + FPRP [3] [%] | % Control [^3 H]PGF2α Binding, FP + pSG5 [3] [%] | % Inhibition (FPRP inhibition of [^3 H]PGF2α binding) [3] [%] | % control ^3 H!PGF2α specific binding, co-transfection [4] [% control] | further results
1 | 1 Trypsin Inhibitor: protease inhibitor alpha-l trypsin inhibitor, cotransfected construct | – | – | – | – | % CONTROL, [^3 H]PGF2α specific binding [1]: 141 ± 3%; % Control [^3 H]PGF2α Binding [2]: 38 ± 3%
2 | Nc1ncnc2c1nc(Br)n2[C@@H]1O[C@@H]2COP(=O)(O)O[C@H]2[C@H]1O [8-Br-cAMP] | 52 ± 3 | 94 ± 6 | 45 | – | –
3 | C[C@H]1CCC/C=C/[C@@H]2C[C@H](O)C[C@H]2[C@H](O)/C=C/C(=O)O1 [Brefeldin A, brefeldin A] | 27 ± 3 | 91 ± 3 | 70 | – | effect of agent on FPRP inhibition of [^3 H]PGF2α binding (words) [3]: no effect; effect of agent on FPRP inhibition of [^3 H]PGF2α binding (words) ([3]; listed as brefeldin A): little or no effect; effect of agent on basal [^3 H]PGF2α binding [3]: little or no effect
4 | CNc1ccc2oc(C[C@H]3O[C@@]4(CC[C@H]3C)O[C@H]([C@H](C)C(=O)c3ccc[nH]3)[C@H](C)C[C@H]4C)nc2c1C(=O)O [Calcium ionophore A23187] | 51 ± 6 | 102 ± 6 | 50 | – | –
5 | CCN(CC)CCCC(C)Nc1ccnc2cc(Cl)ccc12 (stereo not drawn) [Chloroquine, chloroquine] | 37 ± 3 | 91 ± 3 | 59 | – | effect of agent on FPRP inhibition of [^3 H]PGF2α binding (words) [3]: little or no effect; effect of agent on basal [^3 H]PGF2α binding [3]: little or no effect
6 | C=C1[C@@H](O)[C@@H]2O[C@]3(CC[C@H](/C=C/[C@@H](C)[C@@H]4CC(C)=C[C@@]5(O[C@H](C[C@@](C)(O)C(=O)O)CC[C@H]5O)O4)O3)CC[C@H]2O[C@@H]1[C@@H](O)C[C@H](C)[C@H]1O[C@@]2(CCCCO2)CC[C@H]1C [Okadaic acid, okadaic acid] | 45 ± 3 | 94 ± 3 | 52 | – | –
7 | CCCCC[C@H](O)/C=C/[C@H]1[C@H](O)CC(=O)[C@@H]1CCCCCCC(=O)O [PGE1, prostaglandin E1] | 51 ± 3 | 100 ± 3 | 49 | – | –
8 | CCCCCCCCCCCCCC(=O)OC1C(C)C2(O)C(C=C(CO)CC3(O)C(=O)C(C)=CC32)C2C(C)(C)C12OC(C)=O (stereo not drawn) [Phorbol 12-myristate 13-acetate, phorbol 12-myristate 13-acetate] | 54 ± 3 | 105 ± 7 | 50 | – | –
9 | Progesterone Receptor | – | – | – | 103 | –
10 | Prolactin Receptor | – | – | – | 130 | –
11 | TGN38 | – | – | – | 135 | –
12 | Vitamin D receptor | – | – | – | 131 | % control ^3 H!PGF2α binding, third construct co-transfected with FP and FPRP [5]: 36 % control
13 | Vitamin D receptor: over-expressed control protein, cotransfected construct | – | – | – | – | % CONTROL, [^3 H]PGF2α specific binding [1]: 131 ± 7%; % Control [^3 H]PGF2α Binding [2]: 36 ± 3%
14 | alpha-1 trypsin inhibitor | – | – | – | 141 | % control ^3 H!PGF2α binding, third construct co-transfected with FP and FPRP [5]: 38 % control
15 | bcl-2 | – | – | – | 84 | % control ^3 H!PGF2α binding, third construct co-transfected with FP and FPRP [5]: 30 % control
16 | bcl-2: an inhibitor of cell death, cotransfected construct | – | – | – | – | % CONTROL, [^3 H]PGF2α specific binding [1]: 84 ± 5%; % Control [^3 H]PGF2α Binding [2]: 30 ± 3%
17 | crmA | – | – | – | 141 | % control ^3 H!PGF2α binding, third construct co-transfected with FP and FPRP [5]: 29 % control
18 | tunicamycin | 23 ± 3 | 46 ± 3 | 50 | – | effect of agent on FPRP inhibition of [^3 H]PGF2α binding (words) [3]: approximately the same extent; effect of agent on basal [^3 H]PGF2α binding [3]: decreased
19 | βPDGF Receptor | – | – | – | 90 | –
20 | B1 | – | – | – | – | % CONTROL, [^3 H]PGF2α specific binding [1]: 103 ± 5%
21 | B2 | – | – | – | – | % CONTROL, [^3 H]PGF2α specific binding [1]: 130 ± 7%
